From patent publication US12110289B2, “Heterocyclic compounds, preparation methods and uses thereof” (InventisBio Co., Ltd., priority 2020, dated 2024)
Read-outs that look alike come from different tables or passages of the source.

System: Lung cancer cell line NCI-H358 containing KRas G12C mutation
Experiment: Assay for cell proliferation (Cell-titer Glo, 5 days)
Format: cell-based, human
Settings: NCI-H358, 5 days, Cell-titer Glo, read-out: IC50 (nM), Inhibition of NCI-H358 Cell Proliferation
Procedure: One hundred fifty microliter (150 μL) of media containing 2000 cells per well were seeded into each well of a 96-well culture plate and left to attach overnight in a 37° C. incubator with 5% CO2. Diluted compounds of 0.75 μL for each well were added by liquid handler at a final concentration of 0.5% DMSO. Cells were treated for 5 days in the incubator. Cell-titer Glo (CTG) kit (Promega) was used to assess cell proliferation. Of note, 120 μL of CTG reagent was added to each well and incubated at RT for 10 minutes.

IC50 (Homo sapiens, NCI-H358, 120 h) [nM] | IC50 [nM] | SMILES
19 | – | C=CC(=O)N1C[C@H](C)N(c2nc(=O)n(-c3c(C(C)C)ncnc3C(C)C)c3nc(-c4ccccc4F)c(F)cc23)C[C@H]1C [4-((2S,5R)-4-acryloyl-2,5-dimethylpiperazin-1-yl)-7-(2-fluorophenyl)-1-(4,6-diisopropylpyrimidin-5-yl)-6-fluoropyrido[2,3-d]pyrimidin-2(1H)-one]
4 | – | C=CC(=O)N1C[C@H](C)N(c2nc(=O)n(-c3c(C(C)C)ncnc3C(C)C)c3nc(-c4ccccc4F)c(Cl)cc23)C[C@H]1C [4-((2S,5R)-4-acryloyl-2,5-dimethylpiperazin-1-yl)-7-(2-fluorophenyl)-6-chloro-1-(4,6-diisopropylpyrimidin-5-yl)pyrido[2,3-d]pyrimidin-2(1H)-one]
23.9 | – | C=CC(=O)N1CCN(c2nc(=O)n(-c3c(C(C)C)ncnc3C(C)C)c3nc(-c4ccccc4F)c(Cl)cc23)C[C@@H]1CC#N [Compound 2]
661 | – | C=CC(=O)N1CCN(c2nc(=O)n(-c3c(C4CC4)ncnc3C3CC3)c3nc(-c4cccc5[nH]nc(N)c45)c(Cl)cc23)[C@@H](C)C1 [Compound 3]
130 | – | C=CC(=O)N1CCN(c2nc(=O)n(-c3c(C4CC4)ncnc3C3CC3)c3nc(-c4ncccc4F)c(Cl)cc23)[C@@H](C)C1 [Compound 4]
172 | – | C=CC(=O)N1CCN(c2nc(=O)n(-c3c(C4CC4)ncnc3C3CC3)c3nc(-c4ccccc4F)c(Cl)cc23)C[C@@H]1CC#N [Compound 5]
30.6 | – | C=CC(=O)N1CCN(c2nc(=O)n(-c3c(C(C)C)nc(N4CCC4)nc3C(C)C)c3nc(-c4ccccc4F)c(Cl)cc23)[C@@H](C)C1 [Compound 7]
9.2 | – | C=CC(=O)N1CCN(c2nc(=O)n(-c3c(C(C)C)nc(NC)nc3C(C)C)c3nc(-c4ccccc4F)c(Cl)cc23)[C@@H](C)C1 [Compound 11]
107 | – | C=CC(=O)N1CCN(c2nc(=O)n(-c3c(C(C)C)nc(N(C)C)nc3C(C)C)c3nc(-c4ccccc4F)c(Cl)cc23)[C@@H](C)C1 [Compound 12]
8 | – | C=CC(=O)N1CCN(c2nc(=O)n(-c3c(C(C)C)nc(OCC(C)(C)O)nc3C(C)C)c3nc(-c4ccccc4F)c(Cl)cc23)[C@@H](C)C1 [Compound 16]
14.4 | – | C=CC(=O)N1CCN(c2nc(=O)n(-c3c(C(C)C)nc(OC4CCN(C)C4)nc3C(C)C)c3nc(-c4ccccc4F)c(Cl)cc23)[C@@H](C)C1 (stereo partly shown) [Compound 17]
16 | – | C=CC(=O)N1CCN(c2nc(=O)n(-c3c(C(C)C)nc(OC4CN(C)C4)nc3C(C)C)c3nc(-c4ccccc4F)c(Cl)cc23)[C@@H](C)C1 [Compound 18]
5 | – | C=CC(=O)N1CCN(c2nc(=O)n(-c3c(C(C)C)nc(OCC(C)O)nc3C(C)C)c3nc(-c4ccccc4F)c(Cl)cc23)[C@@H](C)C1 (stereo partly shown) [Compound 19]
52.5 | – | C=CC(=O)N1CCN(c2nc(=O)n(-c3c(C4CC4)nc(C#N)nc3C3CC3)c3nc(-c4c(O)cccc4F)c(F)cc23)[C@@H](C)C1 [Compound 25]
168 | – | C=CC(=O)N1CCN(c2nc(=O)n(-c3c(C4CC4)nc(C#N)nc3C3CC3)c3nc(-c4ccccc4F)c(F)cc23)[C@@H](C)C1 [Compound 26]
69.9 | – | C=CC(=O)N1CCN(c2nc(=O)n(-c3c(C4CC4)nc(C)nc3C3CC3)c3nc(-c4ccccc4F)c(F)cc23)[C@@H](C)C1 [Compound 27]
52.7 | – | C=CC(=O)N1CCN(c2nc(=O)n(-c3c(C4CC4)nc(N)nc3C3CC3)c3nc(-c4ccccc4F)c(F)cc23)[C@@H](C)C1 [Compound 30]
28.2 | – | C=CC(=O)N1[C@H](C)CN(c2nc(=O)n(-c3c(C(C)C)nc(OCCN(C)C)nc3C(C)C)c3nc(-c4ccccc4F)c(Cl)cc23)C[C@@H]1C [Compound 31]
8.5 | – | C=CC(=O)N1CCN(c2nc(=O)n(-c3c(C(C)C)nc(OCCOC)nc3C(C)C)c3nc(-c4ccccc4F)c(Cl)cc23)[C@@H](C)C1 [Compound 32]
67.5 | – | C=CC(=O)N1CCN(c2nc(=O)n(-c3c(C4CC4)nc(NCCN(C)C)nc3C3CC3)c3nc(-c4ccccc4F)c(F)cc23)[C@@H](C)C1 [Compound 33]
58.3 | – | C=CC(=O)N1CCN(c2nc(=O)n(-c3c(C4CC4)nc(N4CC(N(C)C)C4)nc3C3CC3)c3nc(-c4ccccc4F)c(F)cc23)[C@@H](C)C1 [Compound 34]
58.2 | – | C=CC(=O)N1CCN(c2nc(=O)n(-c3c(C4CC4)nc(NC(C)=O)nc3C3CC3)c3nc(-c4ccccc4F)c(F)cc23)[C@@H](C)C1 [Compound 35]
> 3000 | – | C=CC(=O)N1CCN(c2nc(=O)n(-c3c(C4CC4)ncnc3C3CC3)c3nc(-c4cccc5[nH]nc(N)c45)c(F)cc23)[C@@H](C)C1 [Compound 36]
> 3000 | – | C=CC(=O)N1C[C@H](C)N(c2nc(=O)n(-c3c(C4CC4)ncnc3C3CC3)c3nc(-c4cccc5[nH]nc(N)c45)c(F)cc23)C[C@H]1C [Compound 37]
> 3000 | – | C=CC(=O)N1[C@H](C)CN(c2nc(=O)n(-c3c(C4CC4)ncnc3C3CC3)c3nc(-c4cccc5[nH]nc(N)c45)c(F)cc23)C[C@@H]1C [Compound 38]
38.2 | – | C=CC(=O)N1CCN(c2nc(=O)n(-c3c(C4CC4)ncnc3C3CC3)c3nc(-c4ccccc4F)c(F)cc23)[C@@H](C)C1 [Compound 39]

IC50 (Homo sapiens, NCI-H358, 120 h) [nM] | IC50 [nM] | SMILES
39.5 | 38.5 | C=CC(=O)N1C[C@H](C)N(c2nc(=O)n(-c3c(C4CC4)ncnc3C3CC3)c3nc(-c4ccccc4F)c(F)cc23)C[C@H]1C [Compound 42]
15.5 | – | C=CC(=O)N1C[C@H](C)N(c2nc(=O)n(-c3c(C4CC4)ncnc3C3CC3)c3nc(-c4c(O)cccc4F)c(F)cc23)C[C@H]1C [Compound 43]
299 | – | C=CC(=O)N1[C@H](C)CN(c2nc(=O)n(-c3c(C4CC4)ncnc3C3CC3)c3nc(-c4ccccc4F)c(F)cc23)C[C@@H]1C [Compound 45]
81.5 | – | C=CC(=O)N1[C@H](C)CN(c2nc(=O)n(-c3c(C4CC4)ncnc3C3CC3)c3nc(-c4c(O)cccc4F)c(F)cc23)C[C@@H]1C [Compound 46]
23.8 | – | C=CC(=O)N1[C@H](C)CN(c2nc(=O)n(-c3c(C4CC4)ncnc3C3CC3)c3nc(-c4c(N)cccc4F)c(F)cc23)C[C@@H]1C [Compound 47]
25.8 | – | C=CC(=O)N1CCN(c2nc(=O)n(-c3c(C(C)C)nc(C)nc3C(C)C)c3nc(-c4ccccc4F)c(F)cc23)[C@@H](C)C1 [Compound 48]
25 | – | C=CC(=O)N1C[C@H](C)N(c2nc(=O)n(-c3c(C(C)C)nc(C)nc3C(C)C)c3nc(-c4ccccc4F)c(F)cc23)C[C@H]1C [Compound 49]
107 | – | C=CC(=O)N1C[C@H](C)N(c2nc(=O)n(-c3c(C4CC4)nc(C)nc3C3CC3)c3nc(-c4ccccc4F)c(F)cc23)C[C@H]1C [Compound 50]
12.5 | – | C=CC(=O)N1C[C@H](C)N(c2nc(=O)n(-c3c(C4CC4)nc(C)nc3C3CC3)c3nc(-c4c(N)cccc4F)c(F)cc23)C[C@H]1C [Compound 51]
617 | – | C=CC(=O)N1[C@H](C)CN(c2nc(=O)n(-c3c(C4CC4)nc(C)nc3C3CC3)c3nc(-c4ccccc4F)c(F)cc23)C[C@@H]1C [Compound 53]
34.6 | – | C=CC(=O)N1[C@H](C)CN(c2nc(=O)n(-c3c(C4CC4)nc(C)nc3C3CC3)c3nc(-c4c(N)cccc4F)c(F)cc23)C[C@@H]1C [Compound 54]
74.3 | – | C=CC(=O)N1[C@H](C)CN(c2nc(=O)n(-c3c(C4CC4)nc(C)nc3C3CC3)c3nc(-c4c(O)cccc4F)c(F)cc23)C[C@@H]1C [Compound 55]
27 | – | C=CC(=O)N1CCN(c2nc(=O)n(-c3c(C(C)C)nc(N(C)S(C)(=O)=O)nc3C(C)C)c3nc(-c4ccccc4F)c(F)cc23)[C@@H](C)C1 [Compound 56]
> 3000 | – | C=CC(=O)N1CCN(c2nc(=O)n(-c3c(C)ccnc3C(C)C)c3nc(-c4cccc5[nH]nc(N)c45)c(F)cc23)[C@@H](C)C1 [Compound 59]
81.7 | – | C=CC(=O)N1CCN(c2nc(=O)n(-c3c(C)cc(S(C)(=O)=O)nc3C(C)C)c3nc(-c4c(O)cccc4F)c(F)cc23)[C@@H](C)C1 [Compound 60]
71.2 | – | C=CC(=O)N1CCN(c2nc(=O)n(-c3c(C4CC4)nc(OC)nc3C3CC3)c3nc(-c4ccccc4F)c(F)cc23)[C@@H](C)C1 [Compound 61]
15.9 | – | C=CC(=O)N1CCN(c2nc(=O)n(-c3c(C4CC4)nc(OC)nc3C3CC3)c3nc(-c4c(O)cccc4F)c(F)cc23)[C@@H](C)C1 [Compound 62]
17.6 | – | C=CC(=O)N1CCN(c2nc(=O)n(-c3c(C(C)C)nc4c(ncn4C)c3C)c3nc(-c4ccccc4F)c(Cl)cc23)[C@@H](C)C1 [Compound 65]
19.9 | – | C=CC(=O)N1CCN(c2nc(=O)n(-c3c(C(C)C)cc4scnc4c3C)c3nc(-c4ccccc4F)c(Cl)cc23)[C@@H](C)C1 [Compound 66]
46.5 | – | C=CC(=O)N1CCN(c2nc(=O)n(-c3c(C(C)C)cc4c(ncn4C)c3C)c3nc(-c4ccccc4F)c(Cl)cc23)[C@@H](C)C1 [Compound 67]
344 | – | C=CC(=O)N1CCN(c2nc(=O)n(-c3c(C)cc4scnc4c3C(C)C)c3nc(-c4ccccc4F)c(Cl)cc23)[C@@H](C)C1 [Compound 68]
– | 7.8 | C=CC(=O)N1CCN(c2nc(=O)n(-c3c(C)cc4c(ncn4C)c3C(C)C)c3nc(-c4ccccc4F)c(Cl)cc23)[C@@H](C)C1 [Compound 69]
15.1 | – | C=CC(=O)N1CCN(c2nc(=O)n(-c3cc4ncn(C)c4nc3C(C)C)c3nc(-c4ccccc4F)c(Cl)cc23)[C@@H](C)C1 [Compound 70]
20.1 | – | C=CC(=O)N1CCN(c2nc(=O)n(-c3ccc4scnc4c3C(C)C)c3nc(-c4ccccc4F)c(Cl)cc23)[C@@H](C)C1 [Compound 71]
66 | – | C=CC(=O)N1CCN(c2nc(=O)n(-c3c(C(C)C)nc4c(ncn4C)c3C)c3nc(-c4ccccc4F)c(F)cc23)[C@@H](C)C1 [Compound 73]
